Test results published in US20260217863A1, “ANTIBODY OR PEPTIDE BINDING SPECIFICALLY TO RNASE A, IMMUNOASSAY DEVICE AND METHOD FOR DETECTING RNASE A, AND METHOD FOR COLLECTING RNASE A” (UIF (University Industry Foundation), Yonsei University, priority 2022, published 2026).
pIC50: −log10 of the molar value.

Key:
[1] = target: T1, RNase A (Bos taurus, UniProt P61823); experiment: RNA cleavage assay with total RNA from HeLa cells, agarose gel imaging; type: biochemical, bovine; design: Ribonuclease A (Type II-A) from bovine pancreas; purchased Sigma-Aldrich Korea; host or cells: bovine pancreas; details: RNase 0.7 μg/ml, agarose gel image analysis, read-out: IC50 for RNase A activity inhibition
T1 sequence (P61823 27-150): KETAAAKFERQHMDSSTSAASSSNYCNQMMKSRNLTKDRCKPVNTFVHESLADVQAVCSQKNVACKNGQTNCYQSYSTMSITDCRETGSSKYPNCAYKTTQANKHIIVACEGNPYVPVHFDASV
Method: The analysis of RNase inhibitory activity of Fv antibodies and synthetic peptides was performed using RNA samples extracted from HeLa cells as follows: (1) Mixing the RNA sample extracted from HeLa cells (600 ng) with 87.5 nM-5.6 μM under conditions of 37° C. for 30 minutes, (2) Electrophoresis on a 1% agarose gel at 90 V for 40 minutes. The estimation of RNase inhibitory activity was carried out by gel imaging of the cleaved RNA using a ChemiDoc XPS (Bio-Rad, CA, USA).
(§1) Using RNA samples extracted from HeLa cells, the RNase inhibitory activity of the synthesized peptides was estimated. The RNase inhibitory activity was assessed using agarose gel imaging of the cleaved RNA. To optimize the RNase concentration for the RNase inhibition assay, total RNA was treated with RNase A (600 ng), with RNase A concentrations ranging from 5.7 ng/ml to 3.6 μg/ml, and the cleaved RNA bands were observed after treatment with ETBR (ethidium bromide). […] The RNase concentration for inhibition analysis was determined to be 0.7 μg/ml, with RNase concentrations above 3.6 μg/ml. The inhibition analysis was performed by mixing total RNA from HeLa cells with RNase (0.7 μg/ml) and Fv-antibody at a concentration of 10 μM, resulting in the observation that the entire RNA was completely cleaved into small RNA bands in the absence of the Fv-antibody. […] The optimal concentration of the Fv-antibody for RNase inhibition was determined by the cleavage reaction with total RNA in the concentration range of 87.5 nM to 5.6 μM for Fv-antibodies (Fv-1, Fv-2, Fv-3).
The analysis of RNase inhibitory activity of Fv antibodies and synthetic peptides was performed using RNA samples extracted from HeLa cells as follows: (1) A mixture of RNA samples extracted from HeLa cells (600 ng) was prepared at concentrations of 87.5 nM-5.6 μM and incubated at 37° C. for 30 minutes; (2) Electrophoresis was conducted in a 1% agarose gel under 90 V for 40 minutes. The estimation of RNase inhibitory activity was carried out by gel imaging of the cleaved RNA using a ChemiDoc XPS (Bio-Rad, CA, USA).
as §1, with “the” for “the concentration”

[2] = target: T1, RNase A; experiment: RNase activity test kit, modified Taq-man RNA probe analysis (ab273299); type: biochemical; design: purchased Abcam ab273299; details: inhibitor 1 μM; after 60 minutes; positive control (no inhibitor) = 100%
Method: The activity of RNase A, which degrades RNA, was evaluated using specially designed RNA probes. This RNase A analysis was performed using a commercial RNase activity test kit based on a modified Taq-man probe analysis (ab273299) from Abcam (Cambridge, UK). To compare inhibitory activity, three synthetic peptides (peptide-1, peptide-2, peptide-3) and three expressed Fv-antibodies (Fv-1, Fv-2, and Fv-3) were compared using two types of commercially available RNase inhibitors from Biofact™ (Daejeon, South Korea) and two types of RNaseOUT™ from Thermofisher (USA). The probes for the RNase inhibition analysis contained RNA probes with fluorescent dyes and quenching materials at each end of the RNA sequence. […] To estimate the RNase A inhibitory activity by the three synthesized peptides, each peptide was treated at a concentration of 1 μM using the analysis kit, and RNase activity was measured. The positive control was prepared to have an RNase reaction without an inhibitor, and the negative control was prepared to have an RNase reaction without the RNA probe. […] The RNase A inhibitory activity of the three synthesized peptides was analyzed after treating each peptide at a concentration range of 100 μM to 1 μM in the assay kit. […] The RNase A inhibitory activity of the three expressed Fv-antibodies was analyzed after treating each peptide at a concentration range of 100 μM to 1 μM in the analysis kit.
The activity of RNase A, which degrades RNA, was evaluated using specially designed RNA probes. This RNase A analysis was performed using a commercial RNase activity test kit based on a modified Taq-man probe analysis (ab273299) from Abcam (Cambridge, UK). For the comparison of inhibitory activity, three synthetic peptides (Peptide-1, Peptide-2, Peptide-3) and three expressed Fv-antibodies (Fv-1, Fv-2, and Fv-3) were compared using two types of commercially available RNase inhibitors from Biofact™ (Daejeon, South Korea) and two types of RNaseOUT™ from Thermofisher (USA). The probes for the RNase inhibition analysis contain RNA probes with fluorescent dyes and fluorescent quenchers at each end of the RNA nucleotide sequence.
To estimate the RNase A inhibitory activity of the three synthesized peptides, each peptide was treated at a concentration of 1 μM using an assay kit, and the RNase activity was evaluated. The positive control was prepared to have an RNase reaction without the inhibitor, while the negative control was prepared to have an RNase reaction without the RNA probe.
The RNase A inhibitory activity of the three synthesized peptides was analyzed after treating each peptide at a concentration range of 100 μM to 1 μM with the RNase A from the assay kit.

pIC50 [1] | relative inhibition level / reduction of RNase A activity [2] [%] | Substance
6.59 | 35.8 | Inhibitor-1 [reference compound]
6.42 | 27.2 | Inhibitor-2 [reference compound]
